The nature of series [1]: Acute toxicity, SWISS mouse (median lethal dose). Conditions: in vivo, read-out: Median lethan dose. On the procedure: (§1) The toxicities which are acute with the SWISS mouse and chronic with the albino rat are determined according to the usual standardized protocols.
Series [2] relates to rat. Briefly: Lethality in the rat. Conditions: administration of 1.12 g/kg to the rat. The format is in vivo. On the procedure:
as §1

Series [3] concerns TG 180 strain. Briefly: In vivo antitumoral test with the mouse, first experiment. Also on record: species or system SWISS mouse. Conditions: for number of survivors (tumor +) / number of survivors (tumor -) / number of animals with tumors: 15 mice per batch; for number of survivors (tumor +) / number of survivors (tumor -): compounds I to V alternately with CP and interferon; for number of animals with tumors: compounds I to V alternately with CP and interferon (0.5 ml of 8 mmolar solution), three weeks; for antitumoral therapeutic efficiency: with respect to reference batches No. 1, 2, 3 and 4, in words. The protocol:
(3) In vivo antitumoral tests with the mouse.
The studies on the antitumoral properties have been carried out with the mouse according the CHANY and CERRUTI protocol (Int. J. Cancer, 1982, 30, 489) on the hereabove compounds I to V.
In order to obtain a tumor or tumors with mice, one uses the TG 180 strain (injection via the i.p. route of 10^6 cells for a male mouse of 25 g and of 0.1 ml of a solution of Corynbacterium Parvum Merieux (CP)).
This experiment bears on 135 SWISS mice devided into 9 batches of 15 mice each. After injection on day D0 of the TG 180 and CP cells, one proceeds in the following manner:
The reference batch No. 1 is treated every day with an injection of placebo.
The reference batch No. 2 is treated every day with an injection of CP (0.1 ml).
The reference batch No. 3 is treated every day with an injection of interferon EAT-113, 0.5 ml.
The reference batch No. 4 is treated every day alternately with CP and with interferon EAT-113, with the same doses as hereabove.
The experimental batches are treated, alternately on day D+1 with the compound according to the invention (0.5 ml of an 8 mmolar solution of a compound I to V), on day D+2 with interferon EAT-113, on day D+3 with CP, and this for three weeks.
The number of survivors is noted, as well as the presence or not of a tumor (tumor+ or tumor-) in the survivors five weeks after day D0.

Series [4] is described as follows: Solubility in water. It is filed as physicochemical.
For series [5], the system named is TG 180 strain. Nature of the series: In vivo antitumoral test with the mouse, first experiment. Also on record: species or system SWISS mouse. Conditions: 15 mice per batch; compounds I to V alternately with CP and interferon.
Series [6] relates to TG 180 strain. Briefly: In vivo antitumoral test with the mouse, second experiment (dose effect).
The subject of series [7] is neoplasic mammary cells (strain NCF 410). Nature of the series: In vitro action on neoplasic mammary cells. It is filed as cell-based. To be noted: association with interferon EAT-113; in words.
The subject of series [8] is cells infected by the murine AIDS TR-26 virus. Briefly: In vitro action on cells infected by murine AIDS virus. To be noted: in words. The format is cell-based.
Series [9] has as its system Herpes hominis type II virus. To be noted: in vivo, with interferon EAT-113; in words.
A short description of series [10]: Solubilizing of the products for the in vivo antitumoral test. It is filed as physicochemical. Conditions: explanation for the small number of survivors; in words.
Series [11] concerns rat. To be noted: Merck Index 10th edition; cited from earlier work.
The conditions of series [12]: rabbit, i.v. 0.12 g/kg, t=60 min; cited from earlier work.
For series [13], the system named is TG 180 strain. Conditions: mouse; cited from earlier work.
Series [14] concerns man. Conditions: massive dose; Brazier et al; in words; cited from earlier work.
The subject of series [15] is fibroblasts. To be noted: in words; cited from earlier work.
For series [16], the system named is herpes virus. To be noted: in words; cited from earlier work.

Each structure is given as a SMILES string. Like-named read-outs stand apart in the source and are kept apart here. Where only a bound is given, the exact number is not on record here.

Regarding `CCCC(=O)O[C@@H]1[C@H]2OC(C)(C)O[C@H]2O[C@@H]1[C@H]1COC(C)(C)O1` [Compound I, O-butanoyl-3-di-O-isopropylidene 1,2: 5,6 α-D-glucofuranose], in series [1] (ip), the LD50 came to 1750 ± 390 mg/kg. Moreover, the LD50 in series [1] (oral route) was more than 8000 mg/kg. Moreover, the lethality entry in series [2] was “does not cause any lethality”. Besides, in series [3], the “number of survivors (tumor +)” value is reported as 3, the “number of survivors (tumor -)” value stood at 7, the “number of animals with tumors” value is reported as 9 and the antitumoral therapeutic efficiency result is given as “very good antitumoral therapeutic efficiency”. Moreover, in series [4] (in words), the solubility in water result is reported as “slightly soluble in water”. Also, the “number of survivors after 6 weeks” value in series [5] stood at 10.

In general, solubility refers to the concentration that dissolves in the medium under given conditions. Read a high solubility as a readily soluble substance. `CCCC(=O)O[C@@H]1[C@H]2OC(C)(C)O[C@H]2O[C@@H]1[C@H](O)CO` [Compound II]: the LD50 in series [1] (ip) came out at 4200 ± 400 mg/kg. Also, the LD50 in [1] (oral route) is more than 8000 mg/kg. In addition, in series [3], the “number of survivors (tumor +)” value is 0, the “number of survivors (tumor -)” value turned out to be 9, the “number of animals with tumors” value amounted to 10 and the antitumoral therapeutic efficiency result was “very good antitumoral therapeutic efficiency”. The “survival after 100 days” value in [6] (administered alternately with CP and interferon, whatever the concentration between 0.25 and 50 mmol/l) is recorded as 30 mice amongst 45. Besides, the “number of surviving mice after 100 days” value in [6] (alternately with CP, interferon omitted, average, 0.5 to 50 millimoles/l) came out at 20 mice amongst 45. The “therapeutic results of the association with CP alone compared with interferon, CP plus arginine butyrate” value in series [6] (compound II plus CP, no interferon, in words) is on record as “as good as the association of interferon with CP plus arginine butyrate”. In addition, the “dose sufficient for obtaining the maximum therapeutic effect” value in [6] (mouse) is reported as ≤ 0.44 mg of potential n-butyric acid per kilogramme of mouse. In [7], the “in vitro action compared with arginine butyrate and interferon EAT-113” value was “stronger than the association of arginine butyrate and interferon EAT-113”. The “action in vitro compared with arginine butyrate” value in [8] is “stronger action in vitro on the cells infected by the murine AIDS TR-26 virus than the arginine butyrate”. Further, the solubility in series [4] (water, room temperature) is more than 100 mg/mL. Moreover, the “potentialization of the action of interferon EAT-113” value in series [9] is “potentialization of the action of interferon EAT-113 on the Herpes hominis type II virus”. Also, the “number of survivors after 6 weeks” value in series [5] is 9.

On to `CCCC(=O)OC[C@@H](O)[C@H]1O[C@@H]2OC(C)(C)O[C@@H]2[C@H]1O` [III, O-butanoyl-6-O-isopropylidene-1,2α-D-glucofuranose], for which the LD50 in series [1] (ip) stood at 3000 ± 350 mg/kg. Moreover, the LD50 in series [1] (oral route) was more than 8000 mg/kg. Moreover, in series [3], the “number of survivors (tumor +)” value stood at 3, the “number of survivors (tumor -)” value amounted to 8, the “number of animals with tumors” value is 7 and the antitumoral therapeutic efficiency entry is listed as “very good antitumoral therapeutic efficiency”. The “number of survivors after 6 weeks” value in series [5] is given as 11.

For `CCCC(=O)OC[C@@H](OC(=O)CCC)[C@H]1O[C@@H]2OC(C)(C)O[C@@H]2[C@H]1OC(=O)CCC` [IV, tri-O-butanoyl 3,5,6-O-isopropylidene-1,2 α-D-glucofuranose], the LD50 in [1] (ip) was more than 8000 mg/kg. Moreover, in [1] (oral route), the LD50 is more than 8000 mg/kg. Besides, in series [3], the “number of survivors (tumor +)” value is recorded as 0, the “number of survivors (tumor -)” value worked out at 3 and the “number of animals with tumors” value was determined as 13. The solubilizing result in series [10] is recorded as “difficulties for solubilizing these products”. For the same compound, the “number of survivors after 6 weeks” value in series [5] was 3.

For the compound `CCCC(=O)OCC(O)CO` (centres unmarked) [IX, O-n-butanoyl-1, propane diol-2,3], the LD50 was 2250 ± 230 mg/kg in [1] (ip) and more than 8000 mg/kg in series [1] (oral route).

On to `CCCC(=O)OC[C@H]1O[C@@H]2OC(C)(C)O[C@@H]2[C@H]2OC(C)(C)O[C@H]21` [V, O-n-butanoyl-6 di-O-isopropylidene-1,2:3,4α-D-galactopyranose], for which the LD50 in [1] (ip) is 2500 ± 400 mg/kg. Besides, in [1] (oral route), the LD50 is more than 8000 mg/kg. In addition, in series [3], the “number of survivors (tumor +)” value is listed as 0, the “number of survivors (tumor -)” value came to 3 and the “number of animals with tumors” value stood at 12. For the same compound, in series [10], the solubilizing entry is on record as “difficulties for solubilizing these products”. Also, in series [5], the “number of survivors after 6 weeks” value turned out to be 3.

With `CCCC(=O)OC[C@H]1OC(OC(=O)CCC)[C@H](OC(=O)CCC)[C@@H](OC(=O)CCC)[C@H]1OC(=O)CCC` (stereo partly drawn) [VI, penta O-n-butanoyl-1,2,3,4,6 D-galactopyranose], the LD50 in [1] (ip) and in series [1] (oral route) was more than 8000 mg/kg throughout.

`CCCC(=O)OC[C@H]1OC(OC(=O)CCC)[C@H](OC(=O)CCC)[C@@H](OC(=O)CCC)[C@@H]1OC(=O)CCC` (stereo partly drawn) [VII, penta- O-n-butanoyl-1,2,3,4,6 D-glucopyranose]: the LD50 in [1] (ip) and in series [1] (oral route) was more than 8000 mg/kg throughout.

For `CCCC(=O)OCC1COC(C)(C)O1` (centres unmarked) [VIII, O-n-butanoyl-1-isopropylidene-2,3-glyceryl], the LD50 in series [1] (ip) is 5400 ± 300 mg/kg; in series [1] (oral route), more than 8000 mg/kg.

For the compound `CCCCCCCCCCCCCCCC(=O)OCC(COC(=O)CCC)OC(=O)CCCCCCCCCCCCCCC` (centres unmarked) [X, O-butanoyl-3-di-O-palmitoyl-1,2 glyceryl], the LD50 was more than 2000 mg/kg in [1] (ip) and more than 6000 mg/kg in series [1] (oral route).

Turning to `CCCCCCCCCCCCCCCC(=O)OCC(COC(=O)CCC)OC(=O)CCC` (centres unmarked) [XI, di-O-butanoyl-2,3 O-palmitoyl-1-glyceryl], the LD50 in series [1] (ip) and in series [1] (oral route) was more than 8000 mg/kg in each case.

Take `CC(C)=O` [acetone]: the “median lethal dose p.o.” value in series [11] was 10.7 mL/kg.

For `CCCC(=O)O` [arginine n-butyrate], the “surviving mice after 100 days” value in series [6] (association of CP plus arginine butyrate without interferon) is reported as 8 mice amongst 45. Besides, in series [6] (association of CP plus arginine butyrate without interferon, in words), the therapeutic efficiency result is “low therapeutic efficiency”. The “n-butyric acid present in serum” value in series [12] is 0 mmol/L. Also, in [13], the optimal dose advocated is recorded as 14 mg of butyric acid. Also, the “side effects in man” value in series [14] was “side effects in man, of the hyperammoniemy type with a reduction of the insulin secretion and disturbances of the urea cycle and of glucose metabolism”.

As to `CCCC(=O)[O-].[Na+]` [sodium n-butyrate], in series [15], the “inhibiting actions on the growth of fibroblasts” value is on record as “interesting inhibiting actions on the growth of fibroblasts”. Further, the antiviral actions entry in [16] was “antiviral actions of sodium butyrate have also been characterized for the herpes virus”.
